Laboratory results reported in patent US3987175A, “Derivatives of phenoxy isobutyric acid having hypolipemizing and hypocholesterolemizing action” (Pierre Fabre S.A., priority 1974, dated 1976).
Structures can show the parent of a compound that is named as a salt.

Legend:
[1] = Hypercholesterolemia induced by the administration of Triton WR 1339; type: in vivo; details: male rats; for Cholesterol % variation / Kunkel phenol % variation: Triton 200 mg/kg IV, 18 hours
Procedure: 3. […] Immediately after the injection, the products to be tested were administered IP and new samples of blood taken 18 hours later (at the maximum of the hypocholesterolemia produced by the Triton). |P being the biochemical parameter under consideration | p Triton + product p Triton + product | - | + 18 hours at the start |1 - × 100 | p Triton p Triton | - | + 18 hours at the start

[2] = Test covering 4 days of treatment by oral administration, normal diet (cholesterol, Kunkel's phenol test); type: in vivo; details: rats, fifth day
Excerpt: 2. Test covering 4 days of treatment by oral administration. In a lot of 30 rats subjected to a normal diet, the blood samplings were effected and the determinations of cholesterol and lipoproteins (Kunkel's phenol test) were made on the fifth day.

[3] = Acute test: cholesterol and triglycerides 4 hours after intraperitoneal administration; type: in vivo; details: rats
Procedure: The products to be studied were administered intraperitoneally to groups of identical rats; the doses were calculated on a basis of clofibrate in order to make the tests fully comparative. After a period of 4 hours, blood was removed by heart puncture and cholesterol and triglycerides determined.

[4] = Acute toxicity, LD50 (method of Miller and Tainter, mortality observed for 4 days); details: mouse, in vivo, mice
Excerpt: The above-described chemical compounds were submitted to toxicity tests. The acute toxicity of certain compounds determined by the 50% lethal dose is entered in the following Table:
The LD50 was studied in accordance with the method of Miller and Tainter, the mortality of mice being observed for 4 days.

[5] = Solubility characteristics; type: physicochemical
[6] = clofibrate 200 mg/kg IP, NS (not significant)
[7] = IP, clofibrate 200 mg/kg, 4 hours
[8] = IP, F 1393 340 mg/kg, 4 hours (comparison with reference products)
[9] = acute dose study, 340 mg/kg, HS (highly significant)
[10] = nicotinic acid 100 mg/kg IP, HS (highly significant)
[11] = IP, nicotinic acid 140 mg/kg, 4 hours

## CCOC(=O)C(C)(C)Oc1ccc(Cl)cc1 [Clofibrate]
[1]; [6]
  Cholesterol % variation: -15%
  Kunkel phenol % variation: -23%
[1]; Triton WR 1339
  Activity in the Triton test (in words): inactive
[2]; clofibrate 200 mg/kg
  Cholesterol % variation referred to the control: -34%
  Kunkel phenol test % variation referred to the control: -29%
[3]; [7]
  Cholesterol % variation referred to the control: -17%
  Triglycerides % variation referred to the control: +23%

## CC(C)(Oc1ccc(Cl)cc1)C(=O)OCCNC(=O)c1cccnc1 [F 1393, Hydrochloride of N-nicotinoyl, O-(p-chloro phenoxy) isobutanoyl ethanol amine]
[4]; po, by mouth
  LD50 at 96 h: 3100 mg/kg
[4]; ip
  LD50 at 96 h: 560 mg/kg
[1]; F 1393 340 mg/kg IP, HS (highly significant)
  Cholesterol % variation: -68%
[1]; F 1393 340 mg/kg IP, S
  Kunkel phenol % variation: -89%
[5]; N-methyl pyrrolidone
  Solubility in N-methyl pyrrolidone: 16%
[5]
  Solubility in ethanol: 3.5%
[5]; propylene glycol
  Solubility in propylene glycol: 5%
[5]; water
  solubility: 120 mg/mL
[2]; F 1393 340 mg/kg
  Cholesterol % variation referred to the control: -44%
  Kunkel phenol test % variation referred to the control: -52%
[3]; [8]
  Cholesterol % variation referred to the control: -32%
  Triglycerides % variation referred to the control: -43%
[3]; acute dose study, 50 mg/kg, HS (highly significant)
  Triglycerides % variation referred to the control: -26%
[3]; acute dose study, 50 mg/kg, NS (not significant)
  Cholesterol % variation referred to the control: -10%
[3]; acute dose study, 100 mg/kg
  Cholesterol % variation referred to the control: -0%
[3]; acute dose study, 100 mg/kg, HS (highly significant)
  Triglycerides % variation referred to the control: -29%
[3]; acute dose study, 200 mg/kg, HS (highly significant)
  Cholesterol % variation referred to the control: -22%
[3]; acute dose study, 200 mg/kg, S
  Triglycerides % variation referred to the control: -19%
[3]; [9]
  Cholesterol % variation referred to the control: -35%
  Triglycerides % variation referred to the control: -43%

## CC(C)(Oc1ccc(Cl)cc1)C(=O)OCCNC(=O)c1ccc[n+]([O-])c1 [F 1416, N-oxide of N-nicotinoyl, O-(parachloro phenoxy) isobutanoyl ethanol amine]
[4]; po, by mouth
  LD50 at 96 h: 2400 mg/kg
[4]; ip
  LD50 at 96 h: ≥ 1000 mg/kg
[5]
  Solubility in ethanol: 3%
[5]; propylene alcohol
  Solubility in propylene alcohol: 1%
[5]; water
  Solubility in water (in words): Insoluble

## O=C(O)c1cccnc1 [Nicotinic acid, nicotinic acid]
[1]; [10]
  Cholesterol % variation: -67%
  Kunkel phenol % variation: -75%
[2]; nicotinic acid 100 mg/kg
  Cholesterol % variation referred to the control: -22%
[3]; [11]
  Cholesterol % variation referred to the control: -25%
  Triglycerides % variation referred to the control: -47%
